Data: ChEMBL document CHEMBL4130459, “3,5-Dimethylorsellinic Acid Derived Meroterpenoids from Penicillium chrysogenum MT-12, an Endophytic Fungus Isolated from Huperzia serrata” (J Nat Prod, 2017)

Experiments:
[1] = system: RAW264.7; assay: Inhibition of LPS-induced nitric oxide production in mouse RAW264.7 cells at 80 uM after 24 hrs by Griess assay relative to control; type: functional; conditions: RAW264.7, 24 h
[2] = system: RAW264.7; assay: Inhibition of LPS-induced nitric oxide production in mouse RAW264.7 cells after 24 hrs by Griess assay; type: functional, cell-based; conditions: RAW264.7, 24 h
[3] = system: RAW264.7; assay: Cytotoxicity against mouse RAW264.7 cells by MTT assay; type: cell-based

IC50 [2] | Structure (SMILES) | inhibition at 80 µM [1] | Activity [3]
 | COC(=O)[C@]1(C)O[C@H]2OC(=O)[C@@H]3[C@H]2[C@@](C)(C[C@H]2C(C)=C4CC(=O)OC(C)(C)C4=CC[C@]32C)C1=O | < 50% | 
 | COC(=O)[C@]12C(=O)[C@@H](C)O[C@@H]3OC(=O)[C@](C)(C[C@H]4C(C)=C5CC(=O)OC(C)(C)C5=CC[C@@]41C)[C@@H]32 | < 50% | 
 | COC(=O)[C@]12C[C@@](C)(O)C(=O)[C@](C)(C[C@H]3C(C)=C4CC(=O)OC(C)(C)C4=CC[C@@]31C)[C@]21CO1 | < 50% | 
 | C[C@H]1O[C@@H]2OC(=O)[C@]3(C)C[C@@H]4[C@@]5(C)C(=C1O[C@H]5C=C1C(=CC(=O)OC1(C)C)[C@@]41CO1)[C@H]23 | < 50% | 
33.6 µM | COc1ccc2c(c1)c(CC(=O)O)c(C)n2C(=O)c1ccc(Cl)cc1 [INDOMETHACIN] |  | 
78.2 µM | COC(=O)[C@]12C(=O)[C@@H](C)O[C@@H]3OC(=O)[C@](C)(C[C@@H]4[C@]1(C)CC=C1C(=CC(=O)OC1(C)C)[C@@]4(C)O)[C@@H]32 |  | Non-Toxic
 | C=C1[C@@]2(C)C[C@@H]3[C@](C)(CC=C4C(C)(C)OC(=O)CC[C@]43C)[C@]1(C(=O)OC)C(=O)[C@@](C)(O)C2=O [BERKELEYONE B] | < 50% | 
12.7 µM | C[C@@H]1O[C@H]2OC(=O)[C@@]3(C)C[C@H]4[C@@](C)(C(=O)C=C5C(=CC(=O)OC5(C)C)[C@]45CO5)[C@@H](C1=O)[C@@]23O |  | Non-Toxic
 | COC(=O)[C@]12C(=O)[C@@H](C)O[C@@H]3OC(=O)[C@](C)(C[C@H]4[C@]5(CO5)C5=CC(=O)OC(C)(C)[C@]56O[C@@H]6C[C@@]41C)[C@@H]32 | < 50% | 
24 µM | C[C@H]1O[C@@H]2OC(=O)[C@]3(C)C[C@@H]4[C@@]5(C)C(=C1O[C@H]5C=C1C(=CC(=O)OC1(C)C)[C@@]41CO1)[C@]23O |  | Non-Toxic
 | C=C1[C@@]2(C)C[C@H]3C(C)=C4CC(=O)OC(C)(C)C4=CC[C@]3(C)[C@]1(C(=O)OC)C(=O)[C@@](C)(O)C2=O [BERKELEYDIONE] | < 50% | 
 | C[C@H]1OC(=O)[C@@]23[C@@H]4[C@H]5OC(=O)[C@]4(C)C[C@@H]4[C@]2(C)[C@H](C=C2C(=CC(=O)OC2(C)C)[C@@]42CO2)O[C@@]13O5 | < 50% | 
 | COC(=O)[C@]12C(=O)[C@H](C)O[C@@H]3OC(=O)[C@](C)(C[C@H]4[C@]5(CO5)C5=CC(=O)OC(C)(C)C5=CC[C@@]41C)[C@@H]32 [BERKELEYACETAL B] | < 50% | 

Structure (SMILES) | IC50 [2] | inhibition at 80 µM [1] | Activity [3]
C[C@@H]1O[C@@H]2OC(=O)[C@]3(C)C[C@@H]4[C@](C)(C(=O)C=C5C(=CC(=O)OC5(C)C)[C@@]45CO5)[C@H](C1=O)[C@H]23 [BERKELEYACETAL C] | 4.3 µM |  | Non-Toxic
